Data published in publication PMC8911181, “A Novel CDK4/6 and PARP Dual Inhibitor ZC-22 Effectively Suppresses Tumor Growth and Improves the Response to Cisplatin Treatment in Breast and Ovarian Cancer” (International Journal of Molecular Sciences, 2022).

Tested on: CDK4/6-mediated phosphorylation of Rb
Assay: Western blot of p-Rb/Rb
Assay type: cell-based, human
Conditions: MDA-MB-231 (2 μM) and OVCAR5 (0.5 μM) cells, 24 h
Experimental: Cells were washed with PBS, collected with scraper, and then lysed in RIPA buffer containing 1× protease and phosphatase inhibitors for 30 min on ice. The supernatants were collected by centrifugation at full speed for 10 min at 4 °C and subjected to SDS-PAGE followed by immunoblotting as described before. Signals were detected using enhanced chemiluminescence (Millipore, Burlington, MA, USA) and captured by the G: BOX Chemi XRQ gel doc System (Syngene, Cambridge, UK).
Figure 3 ZC-22 inhibits CDK4/6 and PARP to induce cell-cycle arrest, DNA damage, and apoptosis in breast and ovarian cancer cells. (A,B) MDA-MB-231 cells were treated with 2 μM LY2835219 (LY-2) or ZC-22. […] The levels of CDK4/6 and p-Rb/Rb were determined by Western blot (A). Cell-cycle distribution was analyzed by flow cytometry (B). […] (D,E) Representative pictures (left) and quantification of percentage (right) of γH2A.X-positive cells in MDA-MB-231 cells treated with 2 μM OLA or ZC-22 for 24 h (D), or OVCAR5 cells treated with 0.5 μM OLA or ZC-22 for 24 h (E). Values are means ± SD, n = 3. * p < 0.05, ** p < 0.01, and *** p < 0.001 for comparisons with the DMSO-treated group. p value was calculated using an unpaired t-test. […] Values are means ± SD, n = 3. * p < 0.05, ** p < 0.01, and *** p < 0.001 vs. the DMSO-treated group. p value was calculated using an unpaired t-test. […]

Compound: CCN1CCN(Cc2ccc(Nc3ncc(F)c(-c4cc(F)c5nc(C)n(C(C)C)c5c4)n3)nc2)CC1 [LY2835219, Abemaciclib, reference compound]
- inhibitory activity on CDK4/6-mediated phosphorylation of Rb: equal inhibitory activity

Compound: Cc1nc2c(F)cc(-c3nc(Nc4ccc(N5CCN(C(=O)c6cc(Cc7n[nH]c(=O)c8ccccc78)ccc6F)CC5)cn4)ncc3F)cc2n1C(C)C [ZC-22, 4-(4-fluoro-3-(4-(6-((5-fluoro-4-(4-fluoro-1-isopropyl-2-methyl-1H-benzo[d]imidazole-6-yl)pyrimidin-2-yl)amino)pyridin-3-yl)piperazine-1-carbonyl)benzyl)phthalazin-1(2H)-one]
- inhibitory activity on CDK4/6-mediated phosphorylation of Rb: equal inhibitory activity
